Data: ChEMBL document CHEMBL5727507, “Substituted indole Mcl-1 inhibitors” (2020)

These compounds were tested against Induced myeloid leukemia cell differentiation protein Mcl-1 (Homo sapiens, UniProt Q07820) (assay: Fluorescence Polarization Anisotropy Competition Assay: Compound affinity was measured using a fluorescence polarization anisotropy competition assay. Anisotropy measurements were carried out in 384-well, black, flat-bottom plates (Greiner Bio-one, Monroe, N.C., USA).).
Induced myeloid leukemia cell differentiation protein Mcl-1, sequence (Q07820 whole entry): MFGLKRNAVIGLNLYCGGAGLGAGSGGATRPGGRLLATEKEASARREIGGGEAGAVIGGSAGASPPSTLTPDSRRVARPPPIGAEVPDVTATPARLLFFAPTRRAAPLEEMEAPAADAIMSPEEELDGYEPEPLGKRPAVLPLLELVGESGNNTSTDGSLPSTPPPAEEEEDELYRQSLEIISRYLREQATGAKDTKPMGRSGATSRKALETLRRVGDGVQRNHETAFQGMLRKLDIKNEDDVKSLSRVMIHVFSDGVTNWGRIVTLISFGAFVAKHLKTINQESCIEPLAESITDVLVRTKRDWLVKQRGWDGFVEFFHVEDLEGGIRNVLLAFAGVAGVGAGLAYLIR

Row | Ki [nM] | SMILES
1 | < 50 | Cc1cc(OCCCc2c(C(=O)NCc3cc(C(=O)O)cc(Cl)n3)[nH]c3c(-c4c(C)nn(C)c4C)cccc23)cc(C)c1Cl
2 | < 50 | Cc1cc(OCCCc2c3n(c4c(-c5c(C)nn(C)c5C)c(Cl)ccc24)[C@H](C)CN(c2ccc(C(=O)O)c4ncccc24)C3=O)cc(C)c1Cl
3 | < 50 | Cc1cc(OCCCc2c(C(=O)N[C@@H]3CCC[C@@H](C(=O)O)C3)[nH]c3c(-c4c(C)nn(C)c4C)cccc23)cc(C)c1Cl
4 | < 50 | Cc1cc(OCCCc2c(C(=O)N(C)c3ccc(C(=O)O)cc3)[nH]c3c(-c4c(C)nn(C)c4C)c(Cl)ccc23)cc(C)c1Cl
5 | < 50 | Cc1cc(OCCCc2c3n(c4c(-c5c(C)nn(C)c5C)c(Cl)ccc24)CCCN(c2ccc(C(=O)O)c4ncccc24)C3=O)cc(C)c1Cl
6 | < 50 | Cc1cc(OCCCc2c(C(=O)N[C@H]3CC[C@@H](C(=O)O)CC3)[nH]c3c(-c4c(C)nn(C)c4C)cccc23)cc(C)c1Cl
7 | < 50 | Cc1cc(OCCCc2c3n(c4c(-c5c(C)nn(C)c5C)c(Cl)ccc24)CCCN(c2ccc(C(=O)O)c4c2ccn4C)C3=O)cc(C)c1Cl
8 | < 50 | Cc1cc(OCCCc2c3n(c4c(-c5c(C)nn(C)c5C)cccc24)CCCN(c2ccnc4c(C(=O)O)cccc24)C3=O)cc(C)c1Cl
9 | < 50 | Cc1cc(OCCCc2c(C(=O)N3CCN(c4ccc(C(=O)O)cc4)CC3)n(CCN3CCOCC3)c3c(-c4c(C)nn(C)c4C)c(Cl)ccc23)cc(C)c1Cl
